This is an account of results in patent US20100227880A1, “CHEMICAL COMPOUNDS” (priority 2006, published 2010).

Where only a bound is given, the exact number is not on record here.

In the first assay the test system is HIV-1 Ba-L or HIV-1 IIIB infection of the HOS cell line (expressing hCXCR4/hCCR5/hCD4/pHIV-LTR-luciferase). The assay is described as follows: HOS HIV-1 Infectivity Assay. The assay is classed as cell-based. The conditions noted are these: HOS cells, luciferase readout, strain not given, read-out: Activity Level. The method, then: Compounds were profiled against two HIV-1 viruses, the M-tropic (CCR5 utilizing) Ba-L strain and the T-tropic (CXCR4 utilizing) IIIB strain. Ba-L was propagated in either peripheral blood lymphocytes or SupT1/CCR5+/CXCR4+ cells. IIIB was propagated in peripheral blood lymphocytes. Compounds were tested for their ability to block infection of the HOS cell line (expressing hCXCR4/hCCR5/hCD4/pHIV-LTR-luciferase) by either HIV-1 Ba-L or HIV-1 IIIB. Compound cytotoxicity was also examined in the absence of virus addition.
HOS cells (expressing hCXCR4/hCCR5/hCD4/pHIV-LTR-luciferase) were harvested and diluted in Dulbeccos modified Eagles media supplemented with 2% FCS to a concentration of 120,000 cells/ml. The cells were plated into 96-well plates (50 μl per well) and the plates were placed in a tissue culture incubator (370° C.; 5% CO2/95% air) for a period of 24 h.
Subsequently, 50 μl of the desired drug solution (2 times the final concentration) was added to each well and the plates were returned to the tissue culture incubator ([…]; 5% CO2/95% air) for 1 h. Following this incubation, 60 μl of diluted virus (4 times the final concentration) was added to 60 μl of 2× the final desired concentration of the compound and 100 μl this compound/virus mix was added to each well (approximately 2 million RLU per well of virus). The plates were returned to the tissue culture incubator ([…]; 5% CO2/95% air) and were incubated for a further 96 h.
Following this incubation the endpoint for the virally infected cultures was quantified following addition of Steady-Glo Luciferase assay system reagent (Promega, Madison, Wis.). Cell viability or non-infected cultures was measured using a CellTiter-Glo luminescent cell viability assay system (Promega, Madison, Wis.). All luminescent readouts are performed on a Topcount luminescence detector (Packard, Meridien, Conn.).
Regarding “N,N,N′-Trimethyl-N′-{[2-({methyl[(8S)-5,6,7,8-tetrahydro-8-quinolinyl]amino}methyl)imidazo[1,2-a]pyridin-3-yl]methyl}-1,2-ethanediamine [Example 17]”, the IC50 was less than 100 nM.

Staying with this assay, now noted: Human immunodeficiency virus 1, HOS cells, luciferase readout, strain not given, read-out: Activity Level.
As for `CN(Cc1nc2ccccn2c1-c1ccnc(N2CCOCC2)c1)[C@H]1CCCc2cccnc21` [Example 29, (8S)-N-Methyl-N-({3-[2-(4-morpholinyl)-4-pyridinyl]imidazo[1,2-a]pyridin-2-yl}methyl)-5,6,7,8-tetrahydro-8-quinolinamine], the IC50 is 100 to 500 nM.
On to `CN1CCN(Cc2c(CN(C)C3CCCc4cccnc43)nc3ccccn23)CC1` (stereo not shown) [Example 31, N-methyl-N-({3-[(4-methyl-1-piperazinyl)methyl]imidazo[1,2-d]pyridin-2-yl}methyl)-5,6,7,8-tetrahydro-8-quinolinamine], for which the IC50 fell in the range of 100 to 500 nM.
In the case of `CN(Cc1nc2ccccn2c1CNCCCN)C1CCCc2cccnc21` (stereo not shown) [Example 32, N-[(2-{-[methyl(5,6,7,8-tetrahydro-8-quinolinyl)amino]methyl}imidazo[1,2-a]pyridin-3-yl)methyl]-1,3-propanediamine], the IC50 lay in the range of 100 to 500 nM.
As for `CN(C)CCNC(=O)c1c(CN(C)C2CCCc3cccnc32)nc2ccccn12` (stereo not shown) [Example 33, N-[2-(dimethylamino)ethyl]-2-{[methyl(5,6,7,8-tetrahydro-8-quinolinyl)amino]methyl}imidazo[1,2-a]pyridine-3-carboxamide], the IC50 lay in the range of 500 to 10000 nM.
Same read-out and setting: the same measure for `CN(Cc1nc2ccccn2c1C(=O)N1CC(N)C1)C1CCCc2cccnc21` (stereo not shown) [Example 34, N-({3-[(3-amino-1-azetidinyl)carbonyl]imidazo[1,2-a]pyridin-2-yl}methyl)-N-methyl-5,6,7,8-tetrahydro-8-quinolinamine]: 500 to 10000 nM; for `CN(Cc1nc2ccccn2c1C(=O)NCCN1CCCC1)C1CCCc2cccnc21` (stereo not shown) [Example 35, 2-{[methyl(5,6,7,8-tetrahydro-8-quinolinyl)amino]methyl}-N-[2-(1-pyrrolidinyl)ethyl]imidazo[1,2-a]pyridine-3-carboxamide]: 500 to 10000 nM; for `CN(C)C1CCN(C(=O)c2c(CN(C)C3CCCc4cccnc43)nc3ccccn23)C1` (stereo not shown) [Example 36, N-[(3-{[3-(dimethylamino)-1-pyrrolidinyl]carbonyl}imidazo[1,2-a]pyridin-2-yl)methyl]-N-methyl-5,6,7,8-tetrahydro-8-quinolinamine]: 100 to 500 nM.
Turning to `CN1CCN(C(=O)c2c(CN(C)C3CCCc4cccnc43)nc3ccccn23)CC1` (stereo not shown) [Example 37, N-methyl-N-({3-[(4-methyl-1-piperazinyl)carbonyl]imidazo[1,2-a]pyridin-2-yl}methyl)-5,6,7,8-tetrahydro-8-quinolinamine], the IC50 is 500 to 10000 nM.
On to `CC(C)N1CCN(C(=O)c2c(CN(C)C3CCCc4cccnc43)nc3ccccn23)CC1` (stereo not shown) [Example 38, N-methyl-N-[(3-{[4-(1-methylethyl)-1-piperazinyl]carbonyl}imidazo[1,2-a]pyridin-2-yl)methyl]-5,6,7,8-tetrahydro-8-quinolinamine], for which the IC50 lay in the range of 500 to 10000 nM.
